How the values were obtained:
Assay type in all cases: physicochemical
[1] = PA imaging of compound solutions in tissue-mimicking phantoms; conditions: solutions in tissue-mimicking phantom
Procedure: FIG. 3. Photophysical characterization of HyP-1 and red-HyP-1. (a) Normalized absorbance (dashed) and emission (solid) spectra of HyP-1 (left) and red-HyP-1 (right). (b) PA spectra of HyP-1 and red-HyP-1. PA images of HyP-1 and red-HyP-1 solutions (10 μM in 0.1 M potassium phosphate buffer (pH 7.4) with 50% EtOH co-solvent) in tissue-mimicking phantoms were obtained, and the mean PA signal corresponding to each compound was plotted as a function of wavelength. Results are presented as mean±SD (n=3). (c) PA signal corresponding to various concentrations of red-HyP-1. […]
The significant change in the absorbance profiles of these compounds can be attributed to disruption of the electron donating capability of the aniline in its N-oxide form. This chemical modification is akin to protonation of the aniline, which has been previously shown to result in similar shifts in the absorbance. The 90 nm separation in absorbance is essential to the probes design as it allows us to readily distinguish each species by selective excitation and subsequent detection using both PA and fluorescence imaging. […] Additionally, because HyP-1 and red-HyP-1 have spectrally resolved emission profiles, ratiometric imaging can be performed by determining the ratio of their fluorescence emission intensities. […]

[2] = pH dependence of absorbance and emission spectra; conditions: buffers pH 4.8 to 12.0
Procedure: FIG. 13. (a) Absorbance and (b) fluorescence spectra of HyP-1 (2 μM) in 20 mM BRB buffers containing 50% v/v EtOH (pH range 4.8-12.0).
FIG. 14. (a) Absorbance and (b) fluorescence spectra of red-HyP-1 (2 μM) in 20 mM BRB buffers containing 50% v/v EtOH (pH range 4.8-12.0).
(§1) In addition to Fe(II), the response of HyP-1 to a variety of alkali, alkaline earth and transition metals was also determined. […] To further evaluate the stability of HyP-1, a 10 μM solution of the probe was exposed to ambient light and temperature for up to 5 days. Additionally, a 10 μM solution of HyP-1 supplemented with human plasma was incubated at 37° C. for 3 hours. […] As mentioned previously, a major limitation of 2-nitroimidazole-based hypoxia probes is their susceptibility to oxygen-independent reduction via two-electron processes, such as by bacterial nitroreductases. […] Finally, the photostability of both HyP-1 and red-HyP-1 was evaluated via continuous PA image acquisition at 770 nm over the course of 1 hour.
0.1 M potassium phosphate buffer (pH 7.4) was prepared by combining stock solutions of KH2PO4 (1 M, 0.990 mL) and K2HPO4 (1 M, 4.010 mL) and diluting to a final volume of 50 mL. […] Fine adjustments to pH were made via addition of 0.1 M HCl or 0.1 M NaOH. pH values were determined using a Mettler-Toledo SevenCompact pH meter calibrated using pH 4.0, 7.0 and 10.0 standard buffers at 25° C.

[3] = Photostability under continuous PA image acquisition; conditions: 770 nm, 1 hour
Procedure: FIG. 16. PA signal (770 nm) at the indicated time points of HyP-1 (dots) and red-HyP-1 (squares) solutions (10 μM in 0.1 M potassium phosphate buffer with 50% v/v EtOH) produced upon continuous image acquisition over the course of 1 h. Reported values represent mean PA signal observed after subtracting background signal produced from tissue-mimicking phantom.
as §1

| SMILES | PA signal at 770 nm [1] | pH dependence of absorbance and emission spectra [2] | PA intensity during continuous acquisition (photostability) [3] |
| --- | --- | --- | --- |
| CC[N+]([O-])(CC)c1ccc(-c2cc(-c3ccccc3)c3n2[B-](F)(F)[N+]2=C(c4ccc(OC)cc4)C=C(c4ccccc4)C2=N3)cc1 [HyP-1, 4-(5,5-difluoro-7-(4-methoxyphenyl)-1,9-diphenyl-5H-5λ^4,6λ^4-dipyrrolo[1,2-c:2′,1′-f][1,3,5,2]triazaborinin-3-yl)-N,N-diethylaniline oxide] | no signal | no significant pH dependence | remained unchanged |
| CCN(CC)c1ccc(-c2cc(-c3ccccc3)c3n2[B-](F)(F)[N+]2=C(c4ccc(OC)cc4)C=C(c4ccccc4)C2=N3)cc1 [Red-HyP-1, 4-(5,5-difluoro-7-(4-methoxyphenyl)-1,9-diphenyl-5H-5λ^4,6λ^4-dipyrrolo[1,2-c:2′,1′-f][1,3,5,2]triazaborinin-3-yl)-N,N-diethylaniline] | strong PA signal | no significant pH dependence | remained unchanged |
